# Data: patent publication US10941114B2, “Small molecule lipid II inhibitors” (University Of Maryland, Baltimore, priority 2015, dated 2021)
# Counter-ions that a name gives are not always drawn. Like-named read-outs stand apart in the source and are kept apart here.
# Experiments:
# Test in all cases: Antibacterial activity assay (MIC, broth dilution)
# Assay type in all cases: cell-based
# [1] = tested on: Enterococcus faecium; conditions: Enterococcus faecium
# Procedure: (§1) Determination of the Minimal Inhibitory Concentrations (MIC) by dilution was carried out by broth dilution according to CLSI standards. See CLSI, Methods for Dilution Antimicrobial Susceptibility Tests for Bacteria That Grow Aerobically; Approved Standard—Eighth Edition. 2009, the contents of which are hereby incorporated by reference. Briefly, the minimum inhibitory concentration MIC, is the lowest concentration of a compound that prevents visible growth of a bacterium, in other words at which it has bacteriostatic activity.
# For these tests, cation-adjusted Mueller Hinton broth, containing 10% brain-heart infusion (BHI) was used. Concentrations (MIC) are given in μg/mL. The compound was […].
# (§2) Compounds were tested for MIC by methods known in the art and described in CLSI, Methods for Dilution Antimicrobial Susceptibility Tests for Bacteria That Grow Aerobically; Approved Standard—Tenth Edition. CLSI document M07-A10. Wayne, Pa.: Clinical and Laboratory Standards Institute, 2015, which is hereby incorporated by reference for these methods.
# (§3) Selected compounds also were tested by broth microdilution methods known in the art and described in CLSI, Methods for Dilution Antimicrobial Susceptibility Tests for Bacteria That Grow Aerobically; Approved Standard—Tenth Edition. CLSI document M07-A10. Wayne, Pa.: Clinical and Laboratory Standards Institute, 2015, which is hereby incorporated by reference. Structures of selected compounds in the tables are listed below.
# [2] = tested on: Enterococcus faecalis; conditions: Enterococcus faecalis, cation-adjusted Mueller Hinton broth, 10% BHI
# [3] = tested on: Acinetobacter baumannii; conditions: Acinetobacter baumannii; Table 16; CLSI M07-A10 dilution method; read-out: MIC A. baumannii
# Procedure: as §1, §2, §3
# [4] = tested on: Staphylococcus aureus; conditions: Staphylococcus aureus; Table 16; CLSI M07-A10 dilution method; read-out: MIC S. aureus
# [5] = cation-adjusted Mueller Hinton broth, 10% BHI, read-out: MIC E. faecium C110914
# [6] = cation-adjusted Mueller Hinton broth, 10% BHI, read-out: MIC E. faecium IH79985
# [7] = cation-adjusted Mueller Hinton broth, 10% BHI, read-out: MIC E. faecium S1559
# [8] = read-out: MIC E. faecalis 51299
# [9] = read-out: MIC E. faecalis 51575
# [10] = read-out: MIC E. faecalis C99707
# [11] = Table 16, CLSI M07-A10 dilution method, read-out: MIC E. faecium
Structure (SMILES),"MIC [2, 8]","MIC [2, 9]","MIC [2, 10]",MIC [3],"MIC [1, 5]","MIC [1, 6]","MIC [1, 7]","MIC [1, 11]",MIC [4]
"Cc1ccc(-c2cc(/C=C/C=C3/N(C)c4ccccc4C3(C)C)[o+]c(-c3ccc(C)cc3)c2)cc1 [Compound 6jc67A, 2,4-di-p-tolyl-6-((1E,3E)-3-(1,3,3-trimethylindolin-2-ylidene)prop-1-en-1-yl)pyrylium boron tetrafluoride salt]",1 µg/mL,1 µg/mL,1 µg/mL,–,1 µg/mL,2 µg/mL,1 µg/mL,–,–
"CCc1ccc(-c2cc(/C=C/c3cc4c5c(c3)CCCN5CCC4)[o+]c(-c3ccc(CC)cc3)c2)cc1 [Compound 6jc69-1, (E)-2,4-bis(4-ethylphenyl)-6-(2-(1,2,3,5,6,7-hexahydropyrido[3,2,1-ij]quinolin-9-yl)vinyl)pyrylium boron tetrafluoride salt]",1 µg/mL,2 µg/mL,1 µg/mL,–,4 µg/mL,8 µg/mL,2 µg/mL,–,–
"Cc1ccc(-c2cc(/C=C/c3cc4c5c(c3)CCCN5CCC4)[o+]c(-c3ccc(C)c(C)c3)c2)cc1C [Compound 6jc69-3, (E)-2,4-bis(3,4-dimethylphenyl)-6-(2-(1,2,3,5,6,7-hexahydropyrido[3,2,1-ij]quinolin-9-yl)vinyl)pyrylium boron tetrafluoride salt]",1 µg/mL,2 µg/mL,1 µg/mL,–,2 µg/mL,4 µg/mL,2 µg/mL,–,–
"Cc1ccc(/C=C/c2cc(-c3ccc(Br)cc3)cc(-c3ccc(Br)cc3)[n+]2C)cc1.[I-] [Compound 9d, (E)-2,4-bis(4-bromophenyl)-1-methyl-6-(4-methylstyryl)pyridin-1-ium iodide]",–,–,–,> 64 µg/mL,–,–,–,4 µg/mL,1 µg/mL
"CC[n+]1c(/C=C/c2ccc(N(C)C)cc2)cc(-c2ccc(Br)cc2)cc1-c1ccc(C)cc1.[I-] [Compound 9e1, (E)-4-(4-bromophenyl)-2-(4-(dimethylamino)styryl)-1-ethyl-6-(p-tolyl)pyridin-1-ium iodide]",–,–,–,4 µg/mL,–,–,–,2 µg/mL,2 µg/mL
CC[n+]1c(/C=C/c2ccc(N(C)CCO)cc2)cc(-c2ccc(Br)cc2)cc1-c1ccc(C)cc1 [Compound 9e2],–,–,–,4 µg/mL,–,–,–,4 µg/mL,2 µg/mL
"CCC[n+]1c(/C=C/c2ccc(N(C)C)cc2)cc(-c2ccc(Br)cc2)cc1-c1ccc(C)cc1.[I-] [Compound 9e3, (E)-4-(4-bromophenyl)-2-(4-(dimethylamino)styryl)-1-propyl-6-(p-tolyl)-pyridin-1-ium iodide]",–,–,–,2 µg/mL,–,–,–,2 µg/mL,0.5 µg/mL
"CCN(CC)c1ccc(/C=C/c2cc(-c3ccc(Br)cc3)cc(-c3ccc(Br)cc3)[n+]2C)cc1F.[I-] [Compound 9j, (E)-2,4-bis(4-bromophenyl)-6-(4-(diethylamino)-3-fluorostyryl)-1-methyl-pyridin-1-ium iodide]",–,–,–,64 µg/mL,–,–,–,32 µg/mL,32 µg/mL
"CN(CCC#N)c1ccc(/C=C/c2cc(-c3ccc(Br)cc3)cc(-c3ccc(Br)cc3)[n+]2C)cc1.[I-] [Compound 9k, (E)-2,4-bis(4-bromophenyl)-6-(4-((2-cyanoethyl)(methyl)amino)styryl)-1-methylpyridin-1-ium iodide]",–,–,–,64 µg/mL,–,–,–,32 µg/mL,32 µg/mL
"CCN(CC)c1ccc(/C=C/c2cc(-c3ccc(Br)cc3)cc(-c3cccc(Br)c3)[n+]2C)cc1.[I-] [Compound 9m, (E)-2-(3-bromophenyl)-4-(4-bromophenyl)-6-(4-(diethylamino)styryl)-1-methylpyridin-1-ium iodide]",–,–,–,8 µg/mL,–,–,–,4 µg/mL,8 µg/mL
"Cc1ccc(-c2cc(-c3ccc(Cl)cc3)cc(/C=C/c3ccc(N(C)C)cc3)[n+]2C)cc1.[I-] [Compound 9n, (E)-4-(4-chlorophenyl)-2-(4-(dimethylamino)styryl)-1-methyl-6-(p-tolyl)-pyridin-1-ium iodide]",–,–,–,4 µg/mL,–,–,–,2 µg/mL,4 µg/mL
"CCN(CC)c1ccc(/C=C/c2cc(-c3ccc(Cl)cc3)cc(-c3ccc(C)cc3)[n+]2C)cc1.[I-] [Compound 9o, (E)-4-(4-chlorophenyl)-2-(4-(diethylamino)styryl)-1-methyl-6-(p-tolyl)pyridin-1-ium iodide]",–,–,–,16 µg/mL,–,–,–,16 µg/mL,32 µg/mL
"Cc1ccc(-c2cc(-c3ccc(Cl)cc3)cc(/C=C/c3ccc(N(C)CCC#N)cc3)[n+]2C)cc1.[I-] [Compound 9q, (E)-4-(4-chlorophenyl)-2-(4-((2-cyanoethyl)(methyl)amino)styryl)-1-methyl-6-(p-tolyl)pyridin-1-ium iodide]",–,–,–,16 µg/mL,–,–,–,2 µg/mL,0.25 µg/mL
"CCN(CC)c1ccc(/C=C/c2cc(-c3ccc(Br)cc3)cc(-c3ccc(C)cc3C)[n+]2C)cc1.[I-] [Compound 9r, (E)-4-(4-bromophenyl)-2-(4-(diethylamino)styryl)-6-(2,4-dimethylphenyl)-1-methylpyridin-1-ium iodide]",–,–,–,8 µg/mL,–,–,–,1 µg/mL,0.5 µg/mL

# Continued, in another order:
"MIC [2, 8]","MIC [2, 9]","MIC [2, 10]",MIC [3],Structure (SMILES),"MIC [1, 5]","MIC [1, 6]","MIC [1, 7]","MIC [1, 11]",MIC [4]
–,–,–,8 µg/mL,"CN(C)c1ccc(/C=C/c2cc(-c3ccc(Br)cc3)cc(-c3ccc(Br)cc3)[n+]2C)cc1.[I-] [Compound 9, (E)-2,4-bis(4-bromophenyl)-6-(4-(dimethylamino)styryl)-1-methylpyridin-1-ium iodide]",–,–,–,8 µg/mL,1 µg/mL
–,–,–,4 µg/mL,Cc1ccc(-c2cc(/C=C/c3ccc(N(C)C)cc3)[n+](C)c(-c3ccc(Br)cc3)c2)cc1 [Compound 9a],–,–,–,4 µg/mL,0.5 µg/mL
–,–,–,16 µg/mL,CN(C)c1ccc(/C=C/c2cc(-c3cccc(Br)c3)cc(-c3ccc(Br)cc3)[n+]2C)cc1 [Compound 9b],–,–,–,2 µg/mL,1 µg/mL
–,–,–,16 µg/mL,"CN(C)c1ccc(/C=C/c2cc(-c3ccc(Cl)cc3)cc(-c3ccc(Br)cc3)[n+]2C)cc1.[I-] [Compound 9c, (E)-2-(4-bromophenyl)-4-(4-chlorophenyl)-6-(4-(dimethylamino)styryl)-1-methylpyridin-1-ium iodide]",–,–,–,4 µg/mL,0.5 µg/mL
–,–,–,32 µg/mL,"CCN(CC)c1ccc(/C=C/c2cc(-c3ccc(Br)cc3)cc(-c3ccc(Br)cc3)[n+]2C)cc1.[I-] [Compound 9f, (E)-2,4-bis(4-bromophenyl)-6-(4-(diethylamino)styryl)-1-methylpyridin-1-ium iodide]",–,–,–,2 µg/mL,1 µg/mL
–,–,–,32 µg/mL,"CN(CCO)c1ccc(/C=C/c2cc(-c3ccc(Br)cc3)cc(-c3ccc(Br)cc3)[n+]2C)cc1.[I-] [Compound 9g, (E)-2,4-bis(4-bromophenyl)-6-(4-((2-hydroxyethyl)(methyl)amino)styryl)-1-methylpyridin-1-ium iodide]",–,–,–,8 µg/mL,16 µg/mL
–,–,–,8 µg/mL,"CCN(C)c1ccc(/C=C/c2cc(-c3ccc(Br)cc3)cc(-c3ccc(Br)cc3)[n+]2C)cc1.[I-] [Compound 9h, (E)-2,4-bis(4-bromophenyl)-6-(4-(ethyl(methyl)amino)styryl)-1-methylpyridin-1-ium iodide]",–,–,–,8 µg/mL,16 µg/mL
–,–,–,16 µg/mL,"CN(C)c1ccc(/C=C/c2cc(-c3ccc(Br)cc3)cc(-c3cccc(Br)c3)[n+]2C)cc1.[I-] [Compound 9l, (E)-2-(3-bromophenyl)-4-(4-bromophenyl)-6-(4-(dimethylamino)styryl)-1-methylpyridin-1-ium iodide]",–,–,–,4 µg/mL,8 µg/mL
